The source of these data is ChEMBL document CHEMBL3112504, “Design, structural and biological characterization of a VEGF inhibitor β-hairpin-constrained peptide” (2014).

Calls of active or inactive are those of the source. The calls are words filed in the database; no cut-off is given here. Peptide text beside a SMILES is read from it.

The subject of test [1] is HUVEC. The test can be described thus: Induction of proapoptosis in VEGF-treated HUVEC assessed as increase in caspase 3 activity at 100 ng/ml after 8 hrs by fluorimetric assay. Type of test: functional, cell-based. The settings on record: Homo sapiens.
The subject of test [2] is HUVEC. The test can be described thus: Inhibition of VEGFR in HUVEC assessed as reduction in VEGF-induced ERK1/2 phosphorylation at 100 ng/ml after 15 mins by Western blotting analysis. The class given is cell-based. The settings on record: Homo sapiens. A general note: A western blot detects proteins with antibodies after separation by electrophoresis.
Test [3] deals with HUVEC. The test can be described thus: Inhibition of VEGFR in HUVEC assessed as reduction in VEGF-induced Akt phosphorylation at 100 ng/ml after 15 mins by Western blotting analysis. The class given is cell-based. The settings on record: Homo sapiens.
For test [4], the system named is HUVEC. Briefly: Inhibition of VEGF-induced HUVEC proliferation at 50 to 100 […] after 48 hrs by CyQuant cell proliferation assay. Type of test: functional.
Test [5] concerns HUVEC. Briefly: Inhibition of VEGFR in HUVEC assessed as reduction in Akt phosphorylation at 25 to 100 ng/ml after 15 mins by Western blotting analysis. The class given is cell-based. As to conditions: Homo sapiens.
Test [6] has as its system HUVEC. The test can be described thus: Inhibition of VEGFR in HUVEC assessed as reduction in ERK1/2 phosphorylation at 25 to 100 ng/ml after 15 mins by Western blotting analysis. The class given is cell-based. The settings on record: Homo sapiens.
The subject of test [7] is HUVEC. Briefly: Induction of proapoptosis in VEGF-treated HUVEC assessed as increase in caspase 3 activity at 25 to 100 ng/ml after 8 hrs by fluorimetric assay. Type of test: functional, cell-based. As to conditions: Homo sapiens.
Test [8] deals with HUVEC. The test can be described thus: Inhibition of VEGFR in HUVEC assessed as reduction in VEGF-induced Akt phosphorylation at 25 to 100 ng/ml after 15 mins by Western blotting analysis. The class given is cell-based. The settings on record: Homo sapiens.
Test [9] relates to HUVEC. The test can be described thus: Induction of proapoptosis in HUVEC assessed as increase in caspase 3 activity at 25 to 100 ng/ml after 8 hrs by fluorimetric assay. The class given is functional, cell-based. The settings on record: Homo sapiens.
Test [10] relates to HUVEC. Briefly: Inhibition of VEGFR in HUVEC assessed as reduction in VEGF-induced ERK1/2 phosphorylation at 25 to 100 ng/ml after 15 mins by Western blotting analysis. As to conditions: Homo sapiens. Type of test: cell-based.
For test [11], the system named is HUVEC. The test can be described thus: Induction of proapoptosis in VEGF-treated HUVEC assessed as increase in caspase 3 activity after 8 hrs by fluorimetric assay. The settings on record: Homo sapiens. The class given is functional, cell-based.

On to H-KPDRWSQWRSTYSLSIG-OH, for which, in the test with HUVEC [1], the result was inactive. Further, the inhibition entry in the test with HUVEC [2], in the test on HUVEC [3] and in the test with HUVEC [4] (Homo sapiens) was “inactive” each time.

Take `CC[C@H](C)[C@H](NC(=O)[C@H](Cc1c[nH]c2ccccc12)NC(=O)[C@H](CC(C)C)NC(=O)[C@H](CS)NC(=O)[C@H](CCC(N)=O)NC(=O)[C@@H](N)CCCCN)C(=O)N[C@@H](CCCNC(=N)N)C(=O)N[C@@H](CO)C(=O)NCC(=O)N[C@@H](CC(=O)O)C(=O)N[C@@H](CCCNC(=N)N)C(=O)N1CCC[C@H]1C(=O)N[C@@H](Cc1c[nH]c2ccccc12)C(=O)N[C@@H](Cc1ccc(O)cc1)C(=O)N[C@@H](CS)C(=O)N[C@H](C(=O)N[C@@H](CO)C(=O)O)[C@@H](C)O` (H-KQCLWIRSGDRPWYCTS-OH): the inhibition entry in the test with HUVEC [5] and in the test with HUVEC [6] was “inactive” in each case. Also, the outcome in the test on HUVEC [7] was Active. In addition, the inhibition result with HUVEC [8] and in the test on HUVEC [10] was “Active” throughout. In addition, in the test with HUVEC [9], the result was inactive. Also, in the test with HUVEC [11], the Activity entry was “Dose-dependent effect”. Moreover, the “inhibition (INH)” value with HUVEC [4] is on record as greater than 95%.
